Measured values from patent US20110214196A1, “DEVELOPMENT OF HERBICIDE-RESISTANT GRASS SPECIES” (University of Georgia Research Foundation, priority 2008, published 2011).

Experiments:
[1] = system: Large crabgrass (Digitaria sanguinalis); experiment: Large crabgrass dose response study, plants from sod farm seed; type: in vivo; settings: for resistance or susceptibility of this population of large crabgrass: conclusion from ED50 values; for effective dose required to cause 50% injury (ED50): large crabgrass grown from sod farm seed, treated when 3-5 cm tall
Description: (§1) Plants were grown from seed collected from a turfgrass sod farm near where sethoxydim had been continuously used for twelve years. Seeds were planted in 250 mL styrofoam cups with a potting mixture of pure sand in a glasshouse with supplemental lighting (300 uE/m2/s) and 30/25 temperature. Plants were watered once daily and fertilized once a week. Large crabgrass plants were treated with herbicides when 3-5 cm tall in a dose response study. Four herbicides (sethoxydim, fluazifop, clethodim, and pinoxaden) were applied at […]. Plant injury was observed 7 and 14 DAT. The experimental design consisted of a randomized complete block design with three replications. The experiment was replicated in time.

[2] = system: Large crabgrass (Digitaria sanguinalis) F2; experiment: Large crabgrass dose response study, F2 from self-pollinated surviving plants; type: in vivo
Description: as §1
In response to all four herbicides, the plants initially illutrated typical ACCase symptomology, but recovered in 7-14 days after treatment (DAT). […] Seeds from self-pollinated surviving large crabgrass plants were collected and analyzed using the same dose response design as state before. […] The ED50 was approximately 10 times greater for the resistant (R) population than that for the wild type (S) population.

Structure (SMILES)	resistance or susceptibility of this population of large crabgrass [1]	effective dose required to cause 50% injury (ED50) [1]	effective dose required to cause 50% injury (ED50) [2]
CCSC(C)CC1CC(=O)C(/C(CC)=N/OC/C=C/Cl)=C(O)C1 (racemic) [clethodim, (E,E)-(±)-2-[1-[[(3-chloro-2-propenyl)oxy]imino]propyl]-5-[2-(ethylthio)propyl]-3-hydroxy-2-cyclohexen-1-one]	susceptible	51±4 g ai/ha	28±22 g ai/ha
CCc1cc(C)cc(CC)c1-c1c(OC(=O)C(C)(C)C)n2n(c1=O)CCOCC2 [pinoxaden]	resistant	168±29 g ai/ha	131±44 g ai/ha
